Data taken from article PMC8708495, “Population Pharmacokinetics and Pharmacodynamic Target Attainment of Isavuconazole against Aspergillus fumigatus and Aspergillus flavus in Adult Patients with Invasive Fungal Diseases: Should Therapeutic Drug Monitoring for Isavuconazole Be Considered as Mandatory as for the Other Mold-Active …” (Pharmaceutics, 2021).
Where two headings read alike, the source gives them in different places.

Tests used:
[1] = Mixed-effect linear regression of clinical variables associated with isavuconazole Ctrough; assay type: in vivo, human
Experimental: Data were presented as median and interquartile range (IQR) for continuous variables or as count and percentage for categorical variables in the descriptive statistics. Univariate and multivariate linear mixed-effect models (with a random effect to account for correlation among repeated measurements within the same subject) were performed to identify clinical independent predictors of isavuconazole Ctrough. All variables that were associated with a p ≤ 0.20 at univariate analysis were subsequently included in the multivariate model. All statistical and graphical analyses were performed with R version 3.4.4 (R Foundation for Statistical Computing, Vienna, Austria). Data were considered statistically significant when p < 0.05.

[2] = system: A. fumigatus; design: method as in PMID 25753636; settings: EUCAST MIC method; associated with a 90% survival rate against disseminated aspergillosis by wild-type and azole-resistant A. fumigatus; cited from earlier work
[3] = cited from earlier work
[4] = Safety and liver enzyme monitoring during isavuconazole therapy; assay type: in vivo
Experimental: (§1) The following demographic and clinical data were retrieved from each patient’s medical record: age, gender, weight, height, type and site of infection and microbiological isolate. Patient comedications, along with serum albumin, total bilirubin, ALT, AST and γ-GT concentrations, were recorded at each TDM assessment. Drug-induced liver injury was defined as mild, moderate, severe or fatal according to the EASL Clinical Practice Guidelines for drug-induced liver injury. Drug cotreatments were accurately reviewed by a clinical pharmacologist with the intent of assessing the eventual influence on isavuconazole clearance by CYP3A4 inhibitors and/or inducers. CYP3A4 inhibitors and/or inducers were classified as strong, moderate and mild according to the FDA [19] and to the DrugBank database. Patient outcome at end of therapy was defined as successful (in case of clinical, radiological and/or mycological resolution or improvement of infection) or failed according to [21].

[5] = system: A. flavus; design: method as in earlier work; settings: EUCAST; cited from earlier work
[6] = Therapeutic drug monitoring of isavuconazole Ctrough and Cpeak in hospitalized patients; assay type: in vivo, human
Experimental: Isavuconazole treatment was started with a loading dose of 200 mg every 8 h for two days, followed by a maintenance dose of 200 mg daily administered orally or intravenously, at the physician’s discretion. Patients underwent TDM of isavuconazole by assessing plasma Ctrough, which was determined approximately five minutes before the scheduled daily dose, and, whenever possible, also plasma Cpeak, which was determined 2 h after oral administration or 0.5 h after a 1 h intravenous infusion. TDM was assessed firstly after at least 72 h from starting therapy and subsequently reassessed at the discretion of the attending physician.
Blood samples for isavuconazole TDM were immediately delivered to the Institute of Clinical Pharmacology, where they were centrifuged to obtain serum. Isavuconazole serum concentrations were estimated by means of a validated liquid chromatography–tandem mass spectrometry analytic method. Precision and accuracy were assessed by replicate analysis of quality control samples against calibration standards. Intra- and interassay coefficients of variation were always <10%. The LOQ was 0.11 mg/L, and the assay was linear in the range of 0.1–10 mg/L.

[7] = system: A. fumigatus; design: method as in earlier work; settings: EUCAST; cited from earlier work
[8] = Population pharmacokinetic modeling (NPAG, Pmetrics); assay type: in vivo, human; settings: for clearance / Vd / bioavailability: human, serum, 200 mg daily; for clearance / Vd: other: orally or intravenously; for clearance: read-out: CL, total body clearance (converted); for bioavailability: po, read-out: Fos, oral bioavailability
Experimental: Population pharmacokinetics were conducted using the nonparametric adaptive grid approach (NPAG) and the algebraic model solver included in the Pmetrics package (Version 1.5.0, Laboratory of Applied Pharmacokinetics and Bioinformatics, Los Angeles, CA, USA) of R [22]. One- and two-compartment models with first-order absorption and first-order elimination from the central compartment were developed. Maximum a posteriori (MAP)-Bayesian estimates of isavuconazole clearance (CL) and volume of distribution (V) were determined in each patient.
Influence of covariates was assessed by including the biologically plausible clinical covariates into the basic model. Covariate analysis was conducted by means of the Pmetrics function “PMstep” and by linear regression between the median MAP-Bayesian estimates of isavuconazole pharmacokinetic parameters and each tested covariate.
Model comparison was performed by calculating the objective function value (OFV) and the Akaike information criterion (AIC) value. An improvement between the two competitive models was considered statistically significant when the decrease in the OFV was at least 3.84 points. For both the population predictions and the individual predictions, model fit was assessed by evaluating the coefficient of determination of the linear regression of the observed versus predicted concentration plot. Internal model validation was performed by means of a visual predictive check (VPC) with n = 1000 simulations. The normalized prediction distribution errors (NPDE) were also calculated. The VPC plot compares the observed concentrations with model-predicted concentration-time profiles. A model is reliable when ≥95% of the observed concentrations reside within the 95% CI of the model prediction. Assay laboratory error was estimated by means of the interday variability assay data. A first-order polynomial regression was used between drug concentrations and the standard deviation of the observations (C0 = 0.006, C1 = 0.189). Extra process noise was captured with a gamma (G) model (G = 2).

[9] = system: invasive fungal disease; test: Clinical outcome at end of isavuconazole treatment; assay type: in vivo, human
Experimental: This was a monocentric, retrospective, observational study conducted among patients who were treated with isavuconazole because of IFD between September 2017 and November 2020 at the Azienda Sanitaria Universitaria Friuli Centrale of Udine, Italy.
as §1

[10] = design: method as in PMID 26598096; settings: cited from earlier work
[11] = cited from earlier work; remark: listed apart in the source
[12] = Mean, final population pharmacokinetic model
[13] = Median, final population pharmacokinetic model

Q: Which “Unstandardized β-Coefficient (95% CI) for Ctrough” value ([1]; Multivariate Analysis, Cotreatment with CYP3A4 inhibitors) does the source give for `C[C@@H](c1nc(-c2ccc(C#N)cc2)cs1)[C@](O)(Cn1cncn1)c1cc(F)ccc1F` [isavuconazole, Isavuconazole] here?
A: 2.154 (3.248–1.060)

Q: And the “Unstandardized β-Coefficient (95% CI) for Ctrough” value ([1]; Multivariate Analysis, Dose/kg daily (mg/kg))?
A: 0.402 (0.819−0.016)

Q: And the “Unstandardized β-Coefficient (95% CI) for Ctrough” value ([1]; Multivariate Analysis, γ-GT (IU/L))?
A: −0.0004 (0.002−0.002)

Q: What about the “Unstandardized β-Coefficient (95% CI) for Ctrough” value ([1]; Univariate Analysis, ALT (IU/L)) of the same compound?
A: −0.001 (0.007−0.009)

Q: What about the “Unstandardized β-Coefficient (95% CI) for Ctrough” value ([1]; Univariate Analysis, AST (IU/L)) of the same compound?
A: −0.008 (-0.002–0.004)

Q: What about the “Unstandardized β-Coefficient (95% CI) for Ctrough” value ([1]; Univariate Analysis, Albumin (g/L)) of the same compound?
A: 0.034 (0.087−0.019)

Q: What about the “Unstandardized β-Coefficient (95% CI) for Ctrough” value ([1]; Univariate Analysis, Cotreatment with CYP3A4 inhibitors) of the same compound?
A: 2.39 (3.337–1.443)

Q: And the “Unstandardized β-Coefficient (95% CI) for Ctrough” value ([1]; Univariate Analysis, Days from starting therapy (days))?
A: 0.001 (0.007−0.005)

Q: And the “Unstandardized β-Coefficient (95% CI) for Ctrough” value ([1]; Univariate Analysis, Dose/kg daily (mg/kg))?
A: 0.815 (1.164–0.466)

Q: What about the “Unstandardized β-Coefficient (95% CI) for Ctrough” value ([1]; Univariate Analysis, Gender (male vs. female)) of the same compound?
A: 0.099 (6.986−6.788)

Q: What about the “Unstandardized β-Coefficient (95% CI) for Ctrough” value ([1]; Univariate Analysis, Total bilirubin (mg/dL)) of the same compound?
A: −0.346 (0.034−0.726)

Q: And the “Unstandardized β-Coefficient (95% CI) for Ctrough” value ([1]; Univariate Analysis, Weight (kg))?
A: −0.029 (0.006−0.064)

Q: What about the “Unstandardized β-Coefficient (95% CI) for Ctrough” value ([1]; Univariate Analysis, γ-GT (IU/L)) of the same compound?
A: 0.003 (0.005–0.001)

Q: What about the “reduction in Ctrough” value ([1]; associated with patient age) of the same compound?
A: 3.7%

Q: What about the “increase in isavuconazole Ctrough” value ([1]; cotreatment with mild/moderate CYP3A4 inhibitors) of the same compound?
A: more than 2 fold

Q: And the “AUC24 h/MIC pharmacodynamic threshold of efficacy” value [2]?
A: > 33.4

Q: What about the “cut-off value for toxicity (Ctrough)” value ([3]; ROC analysis, mild adverse events) of the same compound?
A: 5.13 µg/mL

Q: And the “Median isavuconazole concentration on days when side effects occurred” value [3]?
A: 6.65 mg/L

Q: And the “Median isavuconazole concentration when side effects were not present” value [3]?
A: 4.09 mg/L

Q: And the “isavuconazole levels associated with hepatic veno-occlusive disease” value ([3]; in vivo)?
A: > 10 mg/L

Q: What about the “linear increase of concentration for each day of treatment” value ([3]; linear mixed model, 264 Ctrough samples from 19 patients) of the same compound?
A: 0.032 mg/L

Q: What about the “signs and/or symptoms of isavuconazole toxicity during therapy” value ([4]; 50 patients) of the same compound?
A: No patient experienced signs and/or symptoms of isavuconazole toxicity during therapy

Q: What about the “ALT in intercurrent mild hepatotoxicity” value ([4]; one patient, resolved spontaneously without isavuconazole withdrawal) of the same compound?
A: up to 261 IU/L

Q: And the “alanine-aminotransferase (ALT), median (min–max)” value ([4]; patients on isavuconazole)?
A: 21.0 (3.0–261.0) UI/L

Q: And the “aspartate-aminotransferase (AST), median (min–max)” value ([4]; patients on isavuconazole)?
A: 20.0 (5.0–249.0) UI/L

Q: What about the “gamma-glutamyltransferase (γ-GT), median (min–max)” value ([4]; patients on isavuconazole) of the same compound?
A: 70.0 (12.0–642.0) IU/L

Q: What about the clinical breakpoint [5] of the same compound?
A: 1 mg/L

Q: And the “proportion of measured Ctrough <1.0 mg/L” value ([6]; 2 of 175 Ctrough)?
A: 1.1%

Q: What about the “proportion of measured Ctrough >5.13 mg/L” value ([6]; 50 of 175 Ctrough) of the same compound?
A: 28.6%

Q: And the Cpeak ([6]; median of 24 Cpeak, patients n = 50, dose 200 mg)?
A: 4.67 mg/L

Q: And the Ctrough ([6]; median of 175 Ctrough, patients n = 50, dose 200 mg)?
A: 3.68 µg/mL

Q: What about the clinical breakpoint [7] of the same compound?
A: 1 mg/L

Q: And the “Ka, first-order transfer rate constant of absorption” value [8, 12]?
A: 22.64 h⁻¹

Q: What about the “Vp, volume of distribution of the peripheral compartment” value [8, 12] of the same compound?
A: 735.24 L

Q: And the “CL, total body clearance” value [8, 13]?
A: 1.33 L/h

Q: What about the “Ka, first-order transfer rate constant of absorption” value [8, 13] of the same compound?
A: 22.64 h⁻¹

Q: And the “Vp, volume of distribution of the peripheral compartment” value [8, 13]?
A: 385.93 L

Q: What about the clearance [8, 12] of the same compound?
A: 25.3 mL/min

Q: And the Vd ([8]; Mean, final population pharmacokinetic model, read-out: V, volume of distribution of the central compartment)?
A: 89.5 L

Q: And the clearance [8, 13]?
A: 25.3 mL/min

Q: What about the Vd ([8]; Median, final population pharmacokinetic model, read-out: V, volume of distribution of the central compartment) of the same compound?
A: 103 L

Q: What about the Vd ([8]; population pharmacokinetic model, read-out: median volume of distribution) of the same compound?
A: 489 L

Q: And the bioavailability [8, 12]?
A: 95%

Q: And the bioavailability [8, 13]?
A: 100%

Q: What about the “interindividual variability on CL” value ([8]; population pharmacokinetic model) of the same compound?
A: 64%

Q: And the “lack of significant improvement with isavuconazole treatment” value ([9]; 3/47)?
A: 6.4%

Q: And the “Dead for other reasons” value ([9]; 3/47, progression of underlying oncohematological disease)?
A: 6.4%

Q: And the Treatment failure ([9]; clinical outcome at end of treatment, Table 1 (12/47))?
A: 25.5%

Q: And the Successful treatment ([9]; clinical outcome at end of treatment, patients who completed treatment (n = 47))?
A: 68.1%

Q: And the failure ([9]; clinical outcome, text (9/47))?
A: 19.2%

Q: What about the plasma protein binding [10] of the same compound?
A: > 98%

Q: What about the “dose up to which the pharmacokinetics are linear” value [11] of the same compound?
A: up to 600 mg daily

Q: And the elimination half-life [11]?
A: 80 to 130 h

Q: And the “plasma drug accumulation ratio between start and end of therapy” value ([11]; multiple-dose study, 32 healthy volunteers, IV and oral)?
A: 3.8–5.2

Q: What about the CL ([11]; observed in SOT patients) of the same compound?
A: 4.28 L/h

Q: What about the “interindividual variability on CL” value ([11]; reported by previous analysis) of the same compound?
A: 43–63%

Q: What about the CL ([11]; reported in clinical trials) of the same compound?
A: 2.2 to 2.5 L/h
